Patent US11766430B2, “Methods of using a phenoxypropylamine compound to treat pain” (Minerva Neurosciences, Inc., priority 2018, dated 2023)
“And” between values parts separate entries of the source, which are not always exact repeats. Equal values may be shown once.

Tested on: carrageenan-induced mechanical hyperalgesia in rats
Assay: Carrageenan-induced mechanical hyperalgesia, paw pressure test, time course to 240 min (Example 2)
Assay type: in vivo, male Sprague-Dawley rats
Procedure: In this model, inflammation is induced by intraplantar injection of carrageenan (2%) into the right hindpaw of the rat. Three hours later, reaction thresholds are measured using the paw pressure test. Pressure is gradually applied to both hind paws (inflamed and control) of the rat, and reaction thresholds are determined as the pressure (g) required to elicit paw withdrawal or vocalization. Morphine (3 mg/kg, s.c.) was used as a positive control.
The experiments in this study used fifty (50) male Sprague-Dawley rats (SPF status, Janvier, France), each weighing 204-260 grams. The rats were housed in a temperature (20-24° C.) and relative humidity (45%-65%) controlled room and acclimated to an artificial day/night cycle of 12 hours light (6.30 a.m. to 6.30 p.m.)/12 hours darkness. Rats had free access to sterilized tap water and were fed ad libitum with pelleted complete diet (reference A04, S.A.F.E.). Rats were housed 4 per cage (cages Type E) and were acclimated for a period of at least 5 days before any testing. Each rat was identified by tail markings. Based on the SPF status of the animal facilities, there is no reason to expect that contaminants were present in the food, water or bedding, at levels capable of interfering with the results of the tests.
Pain Test: Static mechanical hyperalgesia was assessed using the Paw Pressure test or Randall & Selitto test (Randall, L. O. and Selitto, J. J., A method for measurement of analgesic activity on inflamed tissue, Arch Int Pharmacodyn, 1957(111): 409-419). This test requires the application of an increasing pressure on the hind paws between a flat surface and a blunt pointer. This test is usually used with animals with one hind paw inflamed by an injection or injured by ligation, and one normal hind paw, to evaluate drugs for analgesic action. The apparatus exerts a steadily increasing force and reaction threshold is determined as the pressure (g) required to elicit paw withdrawal and/or vocalization. In the experiment, animals were gently handled by the experimenter and static mechanical hyperalgesia was assessed. Each reaction threshold measurement was done for both hind paws.
Five (5) experimental groups of 10 rats each were used. Each group was first injected with of 100 μL of a 2% carrageenan suspension in the plantar aspect of the right hindpaw. Three hours after carrageenan injection, paw withdrawal threshold was measured using the paw pressure test (Baseline). The 5 groups were then administered the following: • Group 1: vehicle (0.5% HPMC), i.p., solution (negative control); • Group 2: MIN-117 (0.01 mg/kg, i.p.) in 0.5% HPMC, suspension; • Group 3: MIN-117 (0.1 mg/kg, i.p.) in 0.5% HPMC, suspension; • Group 4: MIN-117 (1 mg/kg, i.p.) in 0.5% HPMC, suspension; and • Group 5: morphine (3 mg/kg, s.c.) in 0.9% NaCl, solution (positive control).
After administering vehicle, MIN-117, or morphine, the antihyperalgesic effect of the compounds was evaluated using the paw pressure test at 0 min. (T0), 30 min., 60 min., 120 min., and 240 min.
Vehicle and MIN-117 were administered intraperitoneally at 10 mL/kg. Morphine was subcutaneously administered at 5 mL/kg. Dosing and testing were performed in a random order by a blinded experimenter except for the morphine-treated group. Doses were expressed in terms of free active substance. Rats were sacrificed at the end of the experiment by CO2 inhalation pending subsequent removal by a certified company.
Results were assessed as: the paw withdrawal threshold (mean±s.e.m.) in grams of contact pressure for each group, calculated from individual paw withdrawal thresholds; the percentage of variation of the paw withdrawal threshold calculated from the mean value of the vehicle-treated group; and/or the percentage of activity. To determine a statistical effect of the test substance and the reference substance, data were analyzed by a non-parametrical test. The significance level was p<0.05.

[1] = 0.01 mg/kg i.p., 30 min, hydrochloride
[2] = 0.01 mg/kg i.p., 60 min, hydrochloride
[3] = 0.01 mg/kg i.p., 120 min, hydrochloride
[4] = 0.01 mg/kg i.p., 240 min, hydrochloride
[5] = 0.01 mg/kg i.p., Baseline, hydrochloride
[6] = 0.01 mg/kg i.p., T0 (baseline before dosing)
[7] = 0.01 mg/kg i.p., T0 (baseline before dosing), hydrochloride
[8] = 0.01 mg/kg i.p., T0 + 30 min, hydrochloride
[9] = 0.01 mg/kg i.p., T0 + 60 min, hydrochloride
[10] = 0.1 mg/kg i.p., 30 min, hydrochloride
[11] = 0.1 mg/kg i.p., 60 min, hydrochloride
[12] = 0.1 mg/kg i.p., 120 min, hydrochloride
[13] = 0.1 mg/kg i.p., 240 min, hydrochloride
[14] = 0.1 mg/kg i.p., Baseline, hydrochloride
[15] = 0.1 mg/kg i.p., T0 (baseline before dosing)

**Q.** What does the source list for `Cc1nnc(-c2cc3c(OC[C@@H](O)CN4CCC(c5ccc(Cl)c(Cl)c5)CC4)cccc3o2)o1.Cl` [MIN-117, (2S)-1-(4-(3,4-dichlorophenyl)piperidin-1-yl)-3-((2-(5-methyl-1,3,4-oxadiazol-2-yl)benzofuran-4-yl)oxy)propan-2-ol hydrochloride]?
**A.** Nociceptive threshold, control paw, individual rats [1]: 360 g (4×) and 380 g (3×) and 420 g and 340 g and 280 g; Nociceptive threshold, injured paw, individual rats [1]: 180 g (3×) and 220 g and 160 g (2×) and 140 g (2×) and 200 g (2×); Nociceptive threshold, control paw, individual rats [2]: 380 g and 340 g (3×) and 320 g (2×) and 360 g (2×) and 420 g and 300 g; Nociceptive threshold, injured paw, individual rats [2]: 220 g (3×) and 160 g (3×) and 180 g (2×) and 140 g (2×); Nociceptive threshold, control paw, individual rats [3]: 440 g and 360 g (2×) and 340 g and 320 g and 400 g (2×) and 420 g (2×) and 380 g; Nociceptive threshold, injured paw, individual rats [3]: 300 g and 180 g (2×) and 160 g (2×) and 200 g (4×) and 220 g; Nociceptive threshold, control paw, individual rats [4]: 340 g and 360 g (2×) and 380 g (2×) and 300 g and 320 g (3×) and 420 g; Nociceptive threshold, injured paw, individual rats [4]: 200 g (3×) and 180 g (4×) and 160 g (2×) and 140 g; Nociceptive threshold, control paw, individual rats [5]: 400 g (3×) and 380 g (3×) and 320 g and 360 g and 340 g (2×); Nociceptive threshold, injured paw, individual rats [5]: 240 g and 180 g (5×) and 200 g (2×) and 160 g (2×); % activity, injured paw [6]: 2%; % variation vs control paw, injured paw [6]: −50%; % variation vs vehicle-treated group, injured paw [6]: 2%; Nociceptive threshold, control paw (mean ± s.e.m.) [7]: 370.0 ± 9.1 g and 370 g; Nociceptive threshold, injured paw (mean ± s.e.m.) [7]: 186 ± 7.3 g and 186 g; % activity, injured paw (0.01 mg/kg i.p., T0 + 30 min): −1%; % variation vs control paw, injured paw (0.01 mg/kg i.p., T0 + 30 min): −51%; % variation vs pre-drug threshold, injured paw (0.01 mg/kg i.p., T0 + 30 min): −5%; Nociceptive threshold, control paw (mean ± s.e.m.) (0.01 mg/kg i.p., T0 + 30 min): 362 g; % variation vs vehicle-treated group, injured paw [8]: −1% and 1%; Nociceptive threshold, injured paw (mean ± s.e.m.) [8]: 176 ± 8.3 g and 176 g; % activity, injured paw (0.01 mg/kg i.p., T0 + 60 min): −6%; % variation vs control paw, injured paw (0.01 mg/kg i.p., T0 + 60 min): −49%; % variation vs pre-drug threshold, injured paw (0.01 mg/kg i.p., T0 + 60 min): −4%; Nociceptive threshold, control paw (mean ± s.e.m.) (0.01 mg/kg i.p., T0 + 60 min): 348 g; % variation vs vehicle-treated group, injured paw [9]: −5% and 5%; Nociceptive threshold, injured paw (mean ± s.e.m.) [9]: 178 ± 10.1 g and 178 g; % activity, injured paw (0.01 mg/kg i.p., T0 + 120 min): 9%; % variation vs control paw, injured paw (0.01 mg/kg i.p., T0 + 120 min): −48%; % variation vs pre-drug threshold, injured paw (0.01 mg/kg i.p., T0 + 120 min): 8%; % variation vs vehicle-treated group, injured paw (0.01 mg/kg i.p., T0 + 120 min): 8%; Nociceptive threshold, control paw (mean ± s.e.m.) (0.01 mg/kg i.p., T0 + 120 min): 384 g; Nociceptive threshold, injured paw (mean ± s.e.m.) (0.01 mg/kg i.p., T0 + 120 min, hydrochloride): 200 ± 12.6 g and 200 g; % activity, injured paw (0.01 mg/kg i.p., T0 + 240 min): −5%; % variation vs control paw, injured paw (0.01 mg/kg i.p., T0 + 240 min): −49%; % variation vs pre-drug threshold, injured paw (0.01 mg/kg i.p., T0 + 240 min): −4%; % variation vs vehicle-treated group, injured paw (0.01 mg/kg i.p., T0 + 240 min): −4%; Nociceptive threshold, control paw (mean ± s.e.m.) (0.01 mg/kg i.p., T0 + 240 min): 350 g; Nociceptive threshold, injured paw (mean ± s.e.m.) (0.01 mg/kg i.p., T0 + 240 min, hydrochloride): 178 ± 6.3 g and 178 g; Effect on injured paw withdrawal threshold vs vehicle-treated group (in words) (0.01 mg/kg i.p., time course 30-240 min): did not induce any significant increase; Nociceptive threshold, control paw, individual rats [10]: 440 g and 320 g (3×) and 460 g and 300 g and 360 g and 340 g (3×); Nociceptive threshold, injured paw, individual rats [10]: 200 g (4×) and 160 g (2×) and 180 g (4×); Nociceptive threshold, control paw, individual rats [11]: 360 g (3×) and 300 g (2×) and 420 g and 400 g and 320 g (2×) and 340 g; Nociceptive threshold, injured paw, individual rats [11]: 180 g (2×) and 140 g and 160 g (3×) and 200 g (3×) and 220 g; Nociceptive threshold, control paw, individual rats [12]: 380 g and 280 g and 420 g (2×) and 300 g and 340 g (3×) and 360 g (2×); Nociceptive threshold, injured paw, individual rats [12]: 160 g (3×) and 140 g and 220 g and 200 g (2×) and 180 g (3×); Nociceptive threshold, control paw, individual rats [13]: 400 g (2×) and 320 g and 340 g and 280 g and 360 g (3×) and 380 g and 300 g; Nociceptive threshold, injured paw, individual rats [13]: 180 g (3×) and 160 g (3×) and 140 g and 220 g (2×) and 200 g; Nociceptive threshold, control paw, individual rats [14]: 420 g (2×) and 380 g (2×) and 400 g (2×) and 360 g (2×) and 340 g and 320 g; Nociceptive threshold, injured paw, individual rats [14]: 200 g (3×) and 180 g (3×) and 160 g (4×); % activity, injured paw [15]: −2%; % variation vs control paw, injured paw [15]: −53%; % variation vs vehicle-treated group, injured paw [15]: −2%; Nociceptive threshold, control paw (mean ± s.e.m.) (0.1 mg/kg i.p., T0 (baseline before dosing), hydrochloride): 378.0 ± 10.5 g and 378 g
